According to paper PMC6544338, “Comparative biophysical characterization: A screening tool for acetylcholinesterase inhibitors” (PLoS ONE, 2019):
Where two headings read alike, the source gives them in different places.

Tests used:
[1] = target: T1, acetylcholinesterase from Electrophorus electricus (Electric eel) (Electrophorus electricus, UniProt O42275); assay: Inhibition assay for acetylcholinesterase activity (modified Ellman, ATCI/DTNB, 412 nm); type: biochemical
T1 construct: purchased Sigma (St. Louis, MO, USA)
Method: The assay was performed with some modifications of Ellman et al (1961). […] The hydrolysis was monitored by the formation of yellow color (5-thio-2-nitrobenzoate anion) and the absorbance was measured at 412 nm by using spectrophotometer (UV-1800, Shimadzu, Japan).
The inhibitory activity assay was carried out with slight modifications. […] The inhibitory percentage of AChE was calculated as follows:
%inhibition = 100[A − B] − [C − D]/[A − B]
A is the OD without test substance, B is the OD without test substance and AChE, C is the OD with the test substance, D is the OD at 412 nm with the test substance and without AChE.
The relative percentage inhibition were estimated in triplicates and values were expressed as mean ± SEM (n = 3).

immobilized AChE [2] = target: T2, immobilized AChE (Electrophorus electricus, UniProt O42275); assay: biochemical; type: binding; settings: for Kd / Ka1 / Kd1: 25°C
T2 construct: purchased Sigma (St. Louis, MO, USA)
Method: (§1) The protocol was followed with some modifications for enzyme immobilization, scouting and screening. SPR interactions were performed using a Biacore X100 optical biosensor (GE Healthcare Life Sciences, Bangalore, India) at 25°C. SPR analysis was carried out in PBS (200 mM, pH 7.7) from the analyte stock solutions, working solutions were diluted before passing on to the sensor surface. Data collection was done with the help of Biacore control software ver 2.0.2 Sets of experiments were carried out by monitoring change in the refractive index as a function of time under constant flow conditions. The relative amount of inhibitor bound to the AChE was determined by measuring the net increase in the refractive index over time compared to buffer as a control. During each run, there is an inline subtraction of the reference surface. Change is reported regarding response units (RU). The surface was washed with 5 cycles of running buffer (PBS) before next analytes.
(§2) As per pH scouting studies, AChE enzyme (100μg) was dissolved in 100 mM sodium acetate buffer pH 4.5 and was immobilized to the CM5 sensor chip by using the amine coupling method. The flow rate was kept constant during immobilization at 10 μlmin^-1, the surface of flow cell was activated by 1:1 mixture of 100 mM EDC and 100 mM NHS (both dissolved in water) for 7 min. AChE was injected for 7 min, and residual activated carboxymethyl groups were blocked on the sensor surface by 7 min injection of 1M ethanolamine, pH 8.5. In this particular study, flow cell 1 was blank immobilized (without protein) and used as a reference. Inline and double referencing was done for the buffer RU compensation.
(§3) Here the model describes this competitive situation and returns two sets of rate constants, one for each reaction taking into consideration two different analytes. The same buffer was used as running buffer. The constant flow rate was maintained throughout the kinetics (45 μlmin^-1), contact time and dissociation time was kept at 120 second (s). 10 mM glycine pH 3.0 for the time period of 30 s was used for regeneration. The experiments were carried at different concentrations of inhibitors.
(§4) The analysis of data was carried out with X100 evaluation software ver 2.0.2 and fitted to two state fit for individual molecules and for competitive experiments a heterogeneous analyte binding model.

immobilized AChE [3] = target: T2, immobilized AChE; assay: biochemical; type: binding
Method: as §1, §2, §3, §4
Likewise, competitive experiments between different pairs was run by mixing 1:1 ratio of molecules and was fit to heterogeneous analyte model were studied. These experiments are helpful for determining the kinetics of a small molecule analyte in competition with other. Response contributions from both analytes are taken into account by considering molecular weight and concentrations of analytes. For competition binding experiments, pairing was done based on substrate-inhibitor and inhibitor-inhibitor interactions. […] Finally, naturally occurring crocin was also tested due to reports in the literature as a brain tonic for the Alzheimer's.

AChE [4] = target: T3, AChE (Electrophorus electricus, UniProt O42275); assay: Far-UV circular dichroism of AChE with small molecules (secondary structure composition); settings: for Turns of AChE in presence of the molecule / α helix of AChE in presence of the molecule / Random of AChE in presence of the molecule / β sheets of AChE in presence of the molecule: single molecule; for Turns of AChE in presence of the molecule: AChE alone 0; for α helix of AChE in presence of the molecule: AChE alone 3.6±0.012; for Random of AChE in presence of the molecule: AChE alone 44.2±0.46; for β sheets of AChE in presence of the molecule: AChE alone 52.3±0.6
T3 construct: purchased Sigma (St. Louis, MO, USA)
Method: Protein solutions 0.5 milligram per milliliter (mgml^-1) was prepared in 10 mM PBS at pH 7.7. Scans were performed at room temperature using 0.1 cm path length quartz cuvette with 8 s differential integration time at a scan rate of 100 nano meter per minute (nm min^-1). The CD spectrum of AChE enzyme individually and with different small molecules, also in combination was recorded. All spectra resulted from averaging three scans were corrected from the buffer blank. Results were expressed as molar ellipticity (°cm^2 dmol^-1) based on a mean amino acid residue weight (MRW) 110 Da for AChE. The molar ellipticity was determined as [θ obs] = {100 × (MRW) × θobs/cl}, where θ is the observed ellipticity in degrees at a given wavelength, c is the protein concentration in mgml^-1, and l is the path length in cm.
The relative percentages of the secondary structure elements were estimated in triplicates using Manager Suite software.

AChE [5] = target: T3, AChE; assay: Fluorescence spectral studies of AChE incubated with molecules; settings: excitation 365 nm, control emission maxima […] nm, molecules at IC50 concentration, 10 min
Method: The fluorescence intensities were recorded using 0.5 mgml^-1 protein concentration with an excitation wavelength of 365 nm and an emission wavelength of 400–700 nm with slit widths of 20 nm using MY14410002 fluorescence spectrophotometer (Agilent Technologies, USA) at 25°C. Protein solutions of 0.5 mgml^-1 were prepared in 10 mM PBS at pH 7.7. Scans were performed at room temperature using a 1 cm path length quartz cuvette with 1 s differential integration time at a scan rate of 600 nm min^-1. […] The subsequent changes in fluorescence were measured at this wavelength.
Fig 21 a) Intrinsic fluorescence spectra of the AChE incubated with molecules. […] Scans were performed at 37°C using a 1 cm path length quartz cuvette with 1 s differential integration time at a scan rate of 600 nm min^-1. The excitation wavelength was 365 nm and emission wavelength was in the range of 400–700 nm. b) Intrinsic fluorescence spectra of the AChE incubated with molecules. […] Scans were performed at 37° C using a 1 cm path length quartz cuvette with 1 s differential integration time at a scan rate of 600 nm min^-1. The excitation wavelength was 365 nm and the emission wavelength was in the range of 400–700 nm.

[6] = test system: AChE activity of the central nervous tissue of L.acuminata; settings: 0.04 mM tannic acid; cited from earlier work
AChE [7] = settings: cited from earlier work
[8] = affinity fit, read-out: KD Affinity
[9] = pair tannic acid (molecule 1) and ATCI (molecule 2), 1:1
[10] = two-state model, read-out: KD Kinetics
[11] = pair crocin (molecule 1) and ATCI (molecule 2), 1:1

T1 sequence (O42275 24-633): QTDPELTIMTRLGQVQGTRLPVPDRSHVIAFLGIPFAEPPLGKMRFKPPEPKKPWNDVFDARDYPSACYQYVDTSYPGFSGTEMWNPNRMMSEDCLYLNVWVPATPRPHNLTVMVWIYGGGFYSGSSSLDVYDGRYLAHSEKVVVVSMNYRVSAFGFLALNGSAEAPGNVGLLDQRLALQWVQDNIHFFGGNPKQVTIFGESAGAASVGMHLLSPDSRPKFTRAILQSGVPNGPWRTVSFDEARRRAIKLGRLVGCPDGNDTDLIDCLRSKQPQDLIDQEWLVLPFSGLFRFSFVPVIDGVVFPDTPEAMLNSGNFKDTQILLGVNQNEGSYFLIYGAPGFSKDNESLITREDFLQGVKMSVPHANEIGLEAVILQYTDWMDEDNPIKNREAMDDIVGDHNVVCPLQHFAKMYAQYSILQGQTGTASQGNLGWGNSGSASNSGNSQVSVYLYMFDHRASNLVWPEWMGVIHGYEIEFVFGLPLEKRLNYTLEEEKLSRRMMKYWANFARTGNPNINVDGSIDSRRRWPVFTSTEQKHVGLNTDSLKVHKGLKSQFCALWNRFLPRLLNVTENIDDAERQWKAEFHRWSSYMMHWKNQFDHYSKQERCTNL
T3 sequence (O42275 24-633): as above
T2 sequence (O42275 24-633): as above

Compound | Ka2 (immobilized AChE [2]) | Kd (immobilized AChE [2]; [8]) | Ka1 (immobilized AChE [2]; two-state model) | Kd1 (immobilized AChE [2]; two-state model) | Turns of AChE in presence of the molecule (AChE [4]) | α helix of AChE in presence of the molecule (AChE [4]) | Random of AChE in presence of the molecule (AChE [4]) | β sheets of AChE in presence of the molecule (AChE [4]) | change in fluorescence emission of AChE compared to control enzyme (AChE [5]) | IC50 [1] | Kd2 (immobilized AChE [2]) | Kd (immobilized AChE [2]; [10]) | other results
tannic acid | 0.1039±2.2×10^−4 1/s | 11.4 µM | 1400 ± 47 M⁻¹ s⁻¹ | 0.03423 ± 0.017 s⁻¹ | 14.8±0.08% | 5.1±0.039% | 49.5±0.70% | 30.6±0.19% | redshift |  |  |  | IC50 ([1]; […] ATCI, PBS 200 mM pH 7.7, 37°C, mean ± SEM (n = 3), read-out: IC50): 27 ± 2 µM; Molecule 1 ka1 (immobilized AChE [3]): 231.1 ± 3.3 M⁻¹ s⁻¹; Molecule 1 kd1 (immobilized AChE [3]): 2.685e-05 ± 2.9e-08 s⁻¹; Molecule 1 ka1 (immobilized AChE [3]; [9]): 1.687e-05 ± 3.7e+06 M⁻¹ s⁻¹; Molecule 1 kd1 (immobilized AChE [3]; [9]): 0.01266 ± 0.028 s⁻¹; Kd (immobilized AChE [3]; pair tannic acid (molecule 1) and ATCI (molecule 2), 1:1, read-out: Molecule 1 KD): 0.0751 µM; Kd (immobilized AChE [3]; read-out: Molecule 1 KD): 0.116 µM; reduced AChE activity [6]: 37%
O=C(O[C@@H]1Cc2c(O)cc(O)cc2O[C@@H]1c1cc(O)c(O)c(O)c1)c1cc(O)c(O)c(O)c1 [epigallocatechin gallate] |  |  |  |  |  |  |  |  |  |  |  |  | IC50 (AChE [7]; literature value, no reference printed behind it, read-out: IC50): 16.8 µM
CC1=C(C=O)C(C)(C)CC=C1 [safranal] |  |  |  |  |  |  |  |  |  |  |  |  | concentration showing maximum inhibition of AChE (AChE [7]): 21.09 ± 0.17 µM
Oc1cccc(O)c1O [Pyrogallol, pyrogallol] | 0.01979±3.7×10^−4 1/s | 119 µM | 200.1 ± 3.3 M⁻¹ s⁻¹ | 0.05082 ± 0.0015 s⁻¹ | 0% | 0% | 49.2±0.68% | 50.8±0.73% | quenching | 3800 ± 100 µM | 0.002793±3.2×10^−5 1/s | 31.4 µM | IC50 (AChE [7]; read-out: IC50): 10.2 µM
O.Oc1cc(O)c2c(c1)O[C@H](c1ccc(O)c(O)c1)[C@@H](O)C2 [catechin] |  |  |  |  |  |  |  |  |  |  |  |  | IC50 (AChE [7]; Catechin isolated from Dasiphora fruticosa, read-out: IC50): 1040 µM; IC50 (AChE [7]; catechin isolated from Eugenia dysenterica): 42.39 mg/L
C[N+](C)(C)CCOC(N)=O [Carbachol, carbachol, reference compound] | 0.001509±2.6×10^−4 1/s | 1150 µM | 101000 ± 9700 M⁻¹ s⁻¹ | 0.05155 ± 0.0041 s⁻¹ | 2.6±0.016% | 4.0±0.02% | 42.4±0.38% | 51.0±0.69% | no change | 210 ± 15 µM | 0.001298±1.1×10^−4 1/s | 0.236 µM | change in secondary structure of AChE compared to control enzyme (AChE [4]; CD, far-UV): increase in α-helix and a decline in β-sheets
CC(/C=C/C=C(\C)C(=O)O[C@@H]1O[C@H](CO[C@@H]2O[C@H](CO)[C@@H](O)[C@H](O)[C@H]2O)[C@@H](O)[C@H](O)[C@H]1O)=C\C=C\C=C(C)\C=C\C=C(/C)C(=O)O[C@@H]1O[C@H](CO[C@@H]2O[C@H](CO)[C@@H](O)[C@H](O)[C@H]2O)[C@@H](O)[C@H](O)[C@H]1O [Crocin, crocin] | 0.003559±9.4×10^−5 1/s | 475 µM | 601700 ± 6700 M⁻¹ s⁻¹ | 472 ± 5.2 s⁻¹ | 0% | 5.7±0.042% | 43.8±0.41% | 50.5±0.74% | redshift | 920 ± 230 µM | 0.005325±1.5×10^−4 1/s | 470 µM | Kd (immobilized AChE [3]): 6020 µM; Molecule 2 ka2 (immobilized AChE [3]): 1.010 ± 0.11 M⁻¹ s⁻¹; Molecule 2 kd2 (immobilized AChE [3]): 0.006083±1.1×10^−4 1/s; Molecule 1 ka1 (immobilized AChE [3]; [11]): 3281±5.8×10^2 1/Ms; Molecule 1 kd1 (immobilized AChE [3]; [11]): 0.01684±8.5×10^−4 1/s
